US20250163052A1, “cGAS INHIBITORS AND USES THEREOF” (Cornell University, priority 2022, published 2025)

Tests used:
[1] = Metabolic stability in mouse liver microsomes; conditions: for Remaining (NCF = 60 min) / Remaining (T = 60 min): mouse liver microsomes; for Remaining (NCF = 60 min): no co-factor (no NADPH); for Remaining (T = 60 min): 60 min with NADPH
[2] = Metabolic stability in human liver microsomes
[3] = tested on: NFkB-SEAP; assay: THP1-Dual cells transfected with DNA, nfkb expression (Quantiblue); type: cell-based; conditions: Homo sapiens; for inhibition at 10 µM: THP-1, 10 μM; for inhibition at 30 µM: THP-1, 30 μM
Summary of the method: (§1)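 Readouts after overnight incubation: Quantiluc luminescence for Ifnb, Quantiblue for nfkb (both in supernatant) and CellTiter-Glo for viability. Before the DNA stimulus (2 ug/ml, lipofectamine transfection), THP1-Dual cells received compound at several dilutions for 4 h.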

[4] = target: m-cGAS (Mus musculus, UniProt Q8C6L5); assay: Cell-free mouse cGAS enzyme inhibition assay (ATP depletion, Kinase-Glo Max); type: biochemical; conditions: 1 h; for inhibition at 1 µM: read-out: m-cGAS, conc. 1 μM; for inhibition at 10 µM: read-out: m-cGAS, conc. 10 μM
m-cGAS, sequence (Q8C6L5 whole entry): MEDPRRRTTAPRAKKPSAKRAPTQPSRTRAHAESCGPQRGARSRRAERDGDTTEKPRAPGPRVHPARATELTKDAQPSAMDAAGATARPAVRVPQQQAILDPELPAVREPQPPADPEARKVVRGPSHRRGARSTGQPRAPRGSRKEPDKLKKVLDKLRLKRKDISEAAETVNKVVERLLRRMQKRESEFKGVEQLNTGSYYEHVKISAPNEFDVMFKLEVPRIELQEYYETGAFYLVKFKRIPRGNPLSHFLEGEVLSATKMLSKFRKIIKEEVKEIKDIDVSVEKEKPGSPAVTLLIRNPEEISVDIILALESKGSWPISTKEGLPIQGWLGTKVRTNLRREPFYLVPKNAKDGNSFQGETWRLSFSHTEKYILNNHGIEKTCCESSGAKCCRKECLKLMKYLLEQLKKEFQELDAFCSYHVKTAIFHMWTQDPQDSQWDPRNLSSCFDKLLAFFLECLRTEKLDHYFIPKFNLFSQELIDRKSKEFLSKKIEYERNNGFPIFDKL

[5] = tested on: THP1 cells; assay: THP1-Dual cells, cell viability (CellTiter-Glo); type: cell-based
Summary of the method: as §1

[6] = target: h-cGAS (Homo sapiens, UniProt Q8N884); assay: Cell-free human cGAS enzyme inhibition assay (ATP depletion, Kinase-Glo Max); type: biochemical; conditions: 3 h; for inhibition at 1 µM: read-out: h-cGAS, conc. 1 μM; for inhibition at 10 µM: read-out: h-cGAS, conc. 10 μM
h-cGAS, sequence (Q8N884 whole entry): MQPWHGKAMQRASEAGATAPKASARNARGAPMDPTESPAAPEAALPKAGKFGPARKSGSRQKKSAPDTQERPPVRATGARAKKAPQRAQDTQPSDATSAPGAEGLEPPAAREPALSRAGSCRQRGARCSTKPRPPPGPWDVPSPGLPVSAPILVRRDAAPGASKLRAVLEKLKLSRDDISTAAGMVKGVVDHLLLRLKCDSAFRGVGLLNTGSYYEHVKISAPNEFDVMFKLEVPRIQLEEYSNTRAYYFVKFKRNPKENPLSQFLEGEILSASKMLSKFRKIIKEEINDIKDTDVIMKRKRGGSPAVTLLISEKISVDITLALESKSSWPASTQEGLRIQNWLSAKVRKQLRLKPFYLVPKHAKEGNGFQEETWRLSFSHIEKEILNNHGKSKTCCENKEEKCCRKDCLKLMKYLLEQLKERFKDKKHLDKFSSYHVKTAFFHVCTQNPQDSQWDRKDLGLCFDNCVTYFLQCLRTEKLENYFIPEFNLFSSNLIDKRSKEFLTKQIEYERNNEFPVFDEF

[7] = tested on: IFNB; assay: THP1-Dual cells transfected with DNA, Ifnb expression (Quantiluc); type: cell-based; conditions: Homo sapiens; for inhibition at 10 µM: THP-1, 10 μM; for inhibition at 30 µM: THP-1, 30 μM
Summary of the method: as §1

## C[C@]12CC[C@H]3[C@@H](CCC4=CC(=O)CC[C@@]43C)[C@@H]1CC[C@@H]2O [Testosterone, reference compound]
[1]
  Remaining (NCF = 60 min): 88.7%
  Remaining (T = 60 min): 0.0%
[1]; mouse, liver microsomes
  CLint scaled: 1490 mL/min/kg
  CLint(mic): 375.9 µL/min/mg
  T½: 3.7 min
[2]; human liver microsomes, 60 min, no co-factor (no NADPH)
  Remaining (NCF = 60 min): 109.9%
[2]; human liver microsomes, 60 min with NADPH
  Remaining (T = 60 min): 4.0%
[2]; human, liver microsomes
  CLint scaled: 98.2 mL/min/kg

## Cn1ccc(-c2cc(Cl)c(Cl)c3oc4c(c23)CN(C(=O)CO)CC4)n1 [Compound 24]
[1]
  Remaining (NCF = 60 min): 116.2%
  Remaining (T = 60 min): 6.3%
[1]; mouse, liver microsomes
  CLint scaled: < 23.1 mL/min/kg
  half-life: > 3.08 h
  microsomal CLint: < 7.5 µL/min/mg
[3]
  inhibition at 10 µM: < 24%
[4]
  inhibition at 1 µM: 0 to 24%
  inhibition at 10 µM: 50 to 74%
[5]
  Cell viability 10 μM: +++ (+, ++, and +++ mean the compound respectively shows 25-49%; 50-74%; or 75-100% viability to cells)
  Cell viability 30 μM: +++ (+, ++, and +++ mean the compound respectively shows 25-49%; 50-74%; or 75-100% viability to cells)
[6]
  inhibition at 1 µM: 50 to 74%
  inhibition at 10 µM: 75 to 100%
[7]
  inhibition at 10 µM: 50 to 74%
  inhibition at 30 µM: 75 to 100%

## Nc1ccc(-c2cc(Cl)c(Cl)c3[nH]c4c(c23)CN(C(=O)[C@@H]2CCCN2)CC4)cn1 [Compound 16]
[3]
  inhibition at 10 µM: 75 to 100%
  inhibition at 30 µM: 75 to 100%
[4]
  inhibition at 10 µM: 0 to 24%
[5]
  Cell viability 10 μM: +++ (+, ++, and +++ mean the compound respectively shows 25-49%; 50-74%; or 75-100% viability to cells)
  Cell viability 30 μM: + (+, ++, and +++ mean the compound respectively shows 25-49%; 50-74%; or 75-100% viability to cells)
[6]
  inhibition at 10 µM: 75 to 100%
[7]
  inhibition at 10 µM: 75 to 100%
  inhibition at 30 µM: 75 to 100%

## NCC(=O)N1CCc2c(sc3c(Cl)c(Cl)cc(-c4nccs4)c23)C1 [Compound 84]
[3]
  inhibition at 10 µM: < 24%
  inhibition at 30 µM: 50 to 74%
[4]
  inhibition at 1 µM: 0 to 24%
  inhibition at 10 µM: 50 to 74%
[5]
  Cell viability 10 μM: +++ (+, ++, and +++ mean the compound respectively shows 25-49%; 50-74%; or 75-100% viability to cells)
  Cell viability 30 μM: − (Cell viability <24%, in THP1 cells is expressed as “−”)
[6]
  inhibition at 1 µM: 25 to 49%
  inhibition at 10 µM: 75 to 100%
[7]
  inhibition at 10 µM: 25 to 49%
  inhibition at 30 µM: 75 to 100%

## NCC(=O)N1CCc2c(sc3c(Cl)c(Cl)cc(-c4ccc(N)nc4)c23)C1 [Compound 75]
[3]
  inhibition at 10 µM: < 24%
  inhibition at 30 µM: 75 to 100%
[4]
  inhibition at 10 µM: 75 to 100%
[5]
  Cell viability 10 μM: +++ (+, ++, and +++ mean the compound respectively shows 25-49%; 50-74%; or 75-100% viability to cells)
  Cell viability 30 μM: +++ (+, ++, and +++ mean the compound respectively shows 25-49%; 50-74%; or 75-100% viability to cells)
[6]
  inhibition at 1 µM: 0 to 24%
  inhibition at 10 µM: 50 to 74%
[7]
  inhibition at 10 µM: 75 to 100%
  inhibition at 30 µM: 75 to 100%

## NCC(=O)N1CCc2c(sc3c(Cl)c(Cl)cc(-c4ccccn4)c23)C1 [Compound 86]
[3]
  inhibition at 10 µM: < 24%
  inhibition at 30 µM: 50 to 74%
[4]
  inhibition at 1 µM: 0 to 24%
  inhibition at 10 µM: 25 to 49%
[5]
  Cell viability 10 μM: +++ (+, ++, and +++ mean the compound respectively shows 25-49%; 50-74%; or 75-100% viability to cells)
  Cell viability 30 μM: − (Cell viability <24%, in THP1 cells is expressed as “−”)
[6]
  inhibition at 1 µM: 0 to 24%
  inhibition at 10 µM: 50 to 74%
[7]
  inhibition at 10 µM: < 24%
  inhibition at 30 µM: 75 to 100%

## NCC(=O)N1CCc2c(sc3c(Cl)c(Cl)cc(-c4ccco4)c23)C1 [Compound 80]
[3]
  inhibition at 10 µM: 50 to 74%
  inhibition at 30 µM: 75 to 100%
[4]
  inhibition at 1 µM: 25 to 49%
  inhibition at 10 µM: 75 to 100%
[5]
  Cell viability 10 μM: +++ (+, ++, and +++ mean the compound respectively shows 25-49%; 50-74%; or 75-100% viability to cells)
  Cell viability 30 μM: − (Cell viability <24%, in THP1 cells is expressed as “−”)
[6]
  inhibition at 1 µM: 25 to 49%
  inhibition at 10 µM: 75 to 100%
[7]
  inhibition at 10 µM: 50 to 74%
  inhibition at 30 µM: 75 to 100%

## Cc1csc(-c2cc(Cl)c(Cl)c3sc4c(c23)CCN(C(=O)CN)C4)n1 [Compound 91]
[3]
  inhibition at 10 µM: 25 to 49%
[4]
  inhibition at 1 µM: 0 to 24%
  inhibition at 10 µM: 50 to 74%
[5]
  Cell viability 10 μM: ++ (+, ++, and +++ mean the compound respectively shows 25-49%; 50-74%; or 75-100% viability to cells)
  Cell viability 30 μM: − (Cell viability <24%, in THP1 cells is expressed as “−”)
[6]
  inhibition at 1 µM: 25 to 49%
  inhibition at 10 µM: 50 to 74%
[7]
  inhibition at 10 µM: 50 to 74%

## Cn1cc(-c2cc(Cl)c(Cl)c3sc4c(c23)CCN(C(=O)CO)C4)cn1 [Compound 62]
[3]
  inhibition at 10 µM: < 24%
[4]
  inhibition at 1 µM: 25 to 49%
  inhibition at 10 µM: 75 to 100%
[5]
  Cell viability 10 μM: +++ (+, ++, and +++ mean the compound respectively shows 25-49%; 50-74%; or 75-100% viability to cells)
[6]
  inhibition at 10 µM: 25 to 49%
[7]
  inhibition at 10 µM: 50 to 74%

## NCC(=O)N1CCc2c(sc3c(Cl)c(Cl)cc(-c4cncnc4)c23)C1 [Compound 73]
[3]
  inhibition at 10 µM: < 24%
  inhibition at 30 µM: 75 to 100%
[4]
  inhibition at 1 µM: 0 to 24%
  inhibition at 10 µM: 50 to 74%
[5]
  Cell viability 10 μM: +++ (+, ++, and +++ mean the compound respectively shows 25-49%; 50-74%; or 75-100% viability to cells)
  Cell viability 30 μM: − (Cell viability <24%, in THP1 cells is expressed as “−”)
[6]
  inhibition at 1 µM: 0 to 24%
  inhibition at 10 µM: 50 to 74%
[7]
  inhibition at 10 µM: < 24%
  inhibition at 30 µM: 75 to 100%

## Cn1ccc(-c2cc(Cl)c(Cl)c3sc4c(c23)CCN(C(=O)CN)C4)n1 [Compound 83]
[3]
  inhibition at 10 µM: 75 to 100%
  inhibition at 30 µM: 75 to 100%
[4]
  inhibition at 1 µM: 25 to 49%
  inhibition at 10 µM: 75 to 100%
[5]
  Cell viability 10 μM: ++ (+, ++, and +++ mean the compound respectively shows 25-49%; 50-74%; or 75-100% viability to cells)
  Cell viability 30 μM: − (Cell viability <24%, in THP1 cells is expressed as “−”)
[6]
  inhibition at 1 µM: 25 to 49%
  inhibition at 10 µM: 50 to 74%
[7]
  inhibition at 10 µM: 50 to 74%
  inhibition at 30 µM: 75 to 100%

## Cn1c2c(c3c(-c4cncnc4)cc(Cl)c(Cl)c31)CN(C(=O)CN)CC2 [Compound 8]
[3]
  inhibition at 10 µM: 25 to 49%
  inhibition at 30 µM: 50 to 74%
[4]
  inhibition at 10 µM: 0 to 24%
[5]
  Cell viability 10 μM: +++ (+, ++, and +++ mean the compound respectively shows 25-49%; 50-74%; or 75-100% viability to cells)
  Cell viability 30 μM: − (Cell viability <24%, in THP1 cells is expressed as “−”)
[6]
  inhibition at 1 µM: 50 to 74%
  inhibition at 10 µM: 75 to 100%
[7]
  inhibition at 10 µM: 50 to 74%
  inhibition at 30 µM: 75 to 100%

## Cn1ncc(-c2cc(Cl)c(Cl)c3sc4c(c23)CCN(C(=O)CN)C4)n1 [Compound 92]
[3]
  inhibition at 10 µM: 75 to 100%
  inhibition at 30 µM: 75 to 100%
[4]
  inhibition at 1 µM: 25 to 49%
  inhibition at 10 µM: 75 to 100%
[5]
  Cell viability 10 μM: ++ (+, ++, and +++ mean the compound respectively shows 25-49%; 50-74%; or 75-100% viability to cells)
  Cell viability 30 μM: − (Cell viability <24%, in THP1 cells is expressed as “−”)
[6]
  inhibition at 1 µM: 25 to 49%
  inhibition at 10 µM: 50 to 74%
[7]
  inhibition at 10 µM: 75 to 100%
  inhibition at 30 µM: 75 to 100%

## Cn1c2c(c3c(O)cc(Cl)c(F)c31)CN(C(=O)CO)CC2 [Compound 1, 1-(7-chloro-6-fluoro-9-hydroxy-5-methyl-3,4-dihydro-1H-pyrido[4,3-b]indol-2-yl)-2-hydroxy-ethanone]
[3]
  inhibition at 10 µM: < 24%
  inhibition at 30 µM: < 24%
[4]
  inhibition at 10 µM: 75 to 100%
[5]
  Cell viability 10 μM: +++ (+, ++, and +++ mean the compound respectively shows 25-49%; 50-74%; or 75-100% viability to cells)
  Cell viability 30 μM: +++ (+, ++, and +++ mean the compound respectively shows 25-49%; 50-74%; or 75-100% viability to cells)
[6]
  inhibition at 1 µM: 0 to 24%
  inhibition at 10 µM: 75 to 100%
[7]
  inhibition at 10 µM: < 24%
  inhibition at 30 µM: < 24%
